Values after ≈ are worked out from the molar mass of the structure shown.

One experiment relates to P. aeruginosa GN4925. The experiment can be described thus: MIC in Mueller-Hinton agar, AAC(6')-producing strain. Format: cell-based. As to conditions: Pseudomonas aeruginosa; P. aeruginosa GN4925; AAC(6')-producing; Mueller-Hinton agar; read-out: MIC. Here is the method: (§1) The Minimum Inhibitory Concentrations (MIC's) of BB-K311, amikacin and kanamycin A were determined in Mueller-Hinton agar against a number of kanamycin-sensitive and kanamycin-resistant strains of organisms.

The next experiment relates to P. rettgeri HM-56. The description is as above. Particulars: Providencia rettgeri, HM56; P. rettgeri HM-56; AAC(6')-producing; Mueller-Hinton agar; read-out: MIC. It is filed as cell-based. How it is done: as §1
The subject of another experiment is S. marcescens A22288. The description is as above. It is filed as cell-based. As to conditions: Serratia marcescens; S. marcescens A22288; AAC(6')-producing; Mueller-Hinton agar; read-out: MIC. How it is done:
as §1

In a further experiment the test system is S. marcescens A21235. The description is as above. Format: cell-based. Particulars: Serratia marcescens; S. marcescens A21235; AAC(6')-producing; Mueller-Hinton agar; read-out: MIC. How it is done: as §1
A further experiment relates to E. cloacae HM-43. The experiment is described as above. It is filed as cell-based. Particulars: Enterobacter cloacae, HM43; E. cloacae HM-43; AAC(6')-producing; Mueller-Hinton agar; read-out: MIC. How it is done:
as §1

For a further experiment, the system named is S. aureus A22421. The experiment is described as above. Format: cell-based. As to conditions: Staphylococcus aureus; S. aureus A22421; AAC(6')-producing; Mueller-Hinton agar; read-out: MIC. Here is the method: as §1
The subject of another experiment is S. marcescens A21226. The description is as above. As to conditions: Serratia marcescens; S. marcescens A21226; AAC(6')-producing; Mueller-Hinton agar; read-out: MIC. It is filed as cell-based. Here is the method: as §1
For the next experiment, the system named is S. epidermidis A22211. The description is as above. Format: cell-based. Particulars: Staphylococcus epidermidis; S. epidermidis A22211; AAC(6')-producing; Mueller-Hinton agar; read-out: MIC. Here is the method: as §1
For the next experiment, the system named is E. coli A2128. The experiment is described as above. It is filed as cell-based. Particulars: Escherichia coli; E. coli A2128; AAC(6')-producing; Mueller-Hinton agar; read-out: MIC. Here is the method: as §1
A further experiment concerns P. aeruginosa GN315. Described as above. It is filed as cell-based. Particulars: Pseudomonas aeruginosa; P. aeruginosa GN315; AAC(6')-producing; Mueller-Hinton agar; read-out: MIC. How it is done:
as §1

A further experiment relates to S. epidermidis A22152. The description is as above. Format: cell-based. Particulars: Staphylococcus epidermidis, A22152. Here is the method: as §1
The test system of another experiment is S. aureus A22153. The description is as above. Format: cell-based. Particulars: Staphylococcus aureus; S. aureus A22153; AAC(6')-producing; Mueller-Hinton agar; read-out: MIC. Here is the method: as §1
A further experiment relates to S. marcescens A22382. The experiment is described as above. Format: cell-based. As to conditions: Serratia marcescens; S. marcescens A22382; AAC(6')-producing; Mueller-Hinton agar; read-out: MIC. How it is done:
as §1

For a further experiment, the system named is E. coli A20895. The experiment can be described thus: MIC in Mueller-Hinton agar, AAC(3)-I producer. Particulars: Escherichia coli; E. coli A20895; enzyme produced: AAC(3)-I; Mueller-Hinton agar; read-out: MIC. Format: cell-based. Here is the method:
as §1

A further experiment deals with E. coli A20732. The experiment can be described thus: MIC in Mueller-Hinton agar, ANT(2") producer. Format: cell-based. Particulars: Escherichia coli; E. coli A20732; enzyme produced: ANT(2"); Mueller-Hinton agar; read-out: MIC. Here is the method: as §1
In another experiment the test system is E. coli A20107. The experiment can be described thus: MIC in Mueller-Hinton agar, APH(3')-II producer. Format: cell-based. Particulars: Escherichia coli; E. coli A20107; enzyme produced: APH(3')-II; Mueller-Hinton agar; read-out: MIC. How it is done:
as §1

In another experiment the test system is E. cloacae A21006. The experiment can be described thus: MIC in Mueller-Hinton agar, APH(3')-II producer. Particulars: Enterobacter cloacae; E. cloacae A21006; enzyme produced: APH(3')-II; Mueller-Hinton agar; read-out: MIC. It is filed as cell-based. Here is the method: as §1
A further experiment deals with P. Morganii A20031. Kind of experiment: MIC in Mueller-Hinton agar, kanamycin-sensitive strain. Format: cell-based. As to conditions: Morganella morganii; P. Morganii A20031; enzyme produced: none; Mueller-Hinton agar; read-out: MIC. How it is done: as §1
In another experiment the test system is E. coli A9632. The experiment is described as above. Format: cell-based. As to conditions: Escherichia coli; E. coli A9632; enzyme produced: none; Mueller-Hinton agar; read-out: MIC. Here is the method: as §1
The next experiment deals with P. mirabilis A9900. Described as above. As to conditions: Proteus mirabilis; P. mirabilis A9900; enzyme produced: none; Mueller-Hinton agar; read-out: MIC. Format: cell-based. Here is the method: as §1
In a further experiment the test system is E. cloacae A20464. The experiment is described as above. As to conditions: Enterobacter cloacae; E. cloacae A20464; enzyme produced: none; Mueller-Hinton agar; read-out: MIC. Format: cell-based. How it is done:
as §1

A further experiment concerns K. pneumoniae A15130. Described as above. It is filed as cell-based. As to conditions: Klebsiella pneumoniae; K. pneumoniae A15130; enzyme produced: none; Mueller-Hinton agar; read-out: MIC. Here is the method:
as §1

A further experiment relates to B. brevis ATCC8185. The description is as above. It is filed as cell-based. Particulars: Brevibacillus brevis; B. brevis ATCC8185; enzyme produced: none; Mueller-Hinton agar; read-out: MIC. How it is done:
as §1

For the next experiment, the system named is P. stuartii A20615. Described as above. Format: cell-based. As to conditions: Providencia stuartii; P. stuartii A20615; enzyme produced: none; Mueller-Hinton agar; read-out: MIC. Here is the method:
as §1

Another experiment relates to P. vulgaris A9526. Described as above. Format: cell-based. Particulars: Proteus vulgaris; P. vulgaris A9526; enzyme produced: none; Mueller-Hinton agar; read-out: MIC. How it is done:
as §1

The next experiment deals with S. marcescens A20019. The experiment is described as above. It is filed as cell-based. As to conditions: Serratia marcescens; S. marcescens A20019; enzyme produced: none; Mueller-Hinton agar; read-out: MIC. How it is done:
as §1

The subject of the next experiment is S. aureus Smith. The description is as above. It is filed as cell-based. As to conditions: Staphylococcus aureus; S. aureus Smith; enzyme produced: none; Mueller-Hinton agar; read-out: MIC. How it is done:
as §1

A further experiment deals with S. aureus A22054. Kind of experiment: MIC in Mueller-Hinton agar, ANT(4')-producing strain. It is filed as cell-based. Particulars: Staphylococcus aureus; S. aureus A22054; ANT(4')-producing; Mueller-Hinton agar; read-out: MIC. How it is done:
as §1

For another experiment, the system named is B. brevis IFO 12334. The experiment is described as above. As to conditions: Brevibacillus brevis, IFO12334; B. brevis IFO 12334; ANT(4')-producing; Mueller-Hinton agar; read-out: MIC. It is filed as cell-based. How it is done: as §1
A further experiment has as its system S. epidermidis A22033. The description is as above. It is filed as cell-based. Particulars: Staphylococcus epidermidis; S. epidermidis A22033; ANT(4')-producing; Mueller-Hinton agar; read-out: MIC. Here is the method:
as §1

Experiment [1] concerns aminoglycoside-6'-acetyltransferase [AAC(6')]. Particulars: background statement; cited from earlier work.
Another experiment relates to E. cloacae A20364. Kind of experiment: MIC in Mueller-Hinton agar, APH(3')-I producer. It is filed as cell-based. Particulars: Enterobacter cloacae; E. cloacae A20364; enzyme produced: APH(3')-I; Mueller-Hinton agar; read-out: MIC. How it is done:
as §1

For a further experiment, the system named is E. coli A20363. The experiment can be described thus: MIC in Mueller-Hinton agar, APH(3')-I producer. Format: cell-based. As to conditions: Escherichia coli; E. coli A20363; enzyme produced: APH(3')-I; Mueller-Hinton agar; read-out: MIC. How it is done:
as §1

The test system of experiment [2] is aminoglycoside-4'-adenylyltransferase [ANT(4')]. Particulars: background statement; cited from earlier work.
In experiment [3] the test system is microorganisms containing aminoglycoside-inactivating enzymes. Particulars: background statement; cited from earlier work.
The test system of experiment [4] is kanamycin phosphotransferase Type-II. As to conditions: The Journal of Antibiotics, 27, 722-725 and 838-850 (1974); cited from earlier work.

Usually MIC stands for the lowest concentration that inhibits growth of the organism. In the case of `NCC[C@H](O)C(=O)N[C@@H]1C[C@H](N)[C@@H](O[C@H]2O[C@H](CN)[C@@H](O)[C@H](O)[C@H]2O)[C@H](O)[C@H]1O[C@H]1O[C@H](CO)[C@@H](O)[C@H](N)[C@H]1O` [Amikacin, 1-N-[L-(-)-γ-amino-α-hydroxybutyryl]kanamycin A], the minimum inhibitory concentration (MIC) in the experiment on P. aeruginosa GN4925 was 12.5 µg/mL (≈ 21.3 µM); with P. rettgeri HM-56, more than 100 µg/mL; in the experiment on S. marcescens A22288 it was 6.3 µg/mL (≈ 10.8 µM); in the experiment on S. marcescens A21235, 25 µg/mL (≈ 42.7 µM); in the experiment on E. cloacae HM-43, more than 100 µg/mL; in the experiment with S. aureus A22421, 12.5 µg/mL (≈ 21.3 µM). For the same molecule, the MIC with S. marcescens A21226 was determined as 6.3 µg/mL (≈ 10.8 µM); in the experiment with S. epidermidis A22211, 12.5 µg/mL (≈ 21.3 µM); with E. coli A2128 it was 3.1 µg/mL (≈ 5.29 µM); in the experiment with P. aeruginosa GN315, 50 µg/mL (≈ 85.4 µM); against S. epidermidis A22152 it was 3.1 µg/mL (≈ 5.29 µM); in the experiment on S. aureus A22153, 12.5 µg/mL (≈ 21.3 µM). In addition, the minimal inhibitory concentration (MIC) in the experiment with S. marcescens A22382 stood at 12.5 µg/mL (≈ 21.3 µM); in the experiment on E. coli A20895 it was 0.8 µg/mL (≈ 1.37 µM); in the experiment with E. coli A20732, 0.8 µg/mL (≈ 1.37 µM); in the experiment on E. coli A20107 it was 1.6 µg/mL (≈ 2.73 µM); with E. cloacae A21006 it was 1.6 µg/mL (≈ 2.73 µM); in the experiment with P. Morganii A20031, 1.6 µg/mL (≈ 2.73 µM). For the same molecule, the MIC turned out to be 0.8 µg/mL (≈ 1.37 µM) in the experiment with E. coli A9632; 1.6 µg/mL (≈ 2.73 µM) in the experiment with P. mirabilis A9900; 3.1 µg/mL (≈ 5.29 µM) in the experiment with E. cloacae A20464; 1.6 µg/mL (≈ 2.73 µM) in the experiment on K. pneumoniae A15130; 0.8 µg/mL (≈ 1.37 µM) in the experiment with B. brevis ATCC8185; 1.6 µg/mL (≈ 2.73 µM) in the experiment on P. stuartii A20615. Also, the minimal inhibitory concentration (MIC) in the experiment with P. vulgaris A9526 turned out to be 0.8 µg/mL (≈ 1.37 µM); in the experiment on S. marcescens A20019 it was 1.6 µg/mL (≈ 2.73 µM); with S. aureus Smith it was 0.8 µg/mL (≈ 1.37 µM); in the experiment with S. aureus A22054 it was 6.3 µg/mL (≈ 10.8 µM); in the experiment on B. brevis IFO 12334, 6.3 µg/mL (≈ 10.8 µM); in the experiment on S. epidermidis A22033, 6.3 µg/mL (≈ 10.8 µM). The minimal inhibitory concentration (MIC) with E. cloacae A20364 was found to be 3.1 µg/mL (≈ 5.29 µM); in the experiment on E. coli A20363 it was 1.6 µg/mL (≈ 2.73 µM). Also, the “susceptibility to AAC(6')” value in experiment [1] is given as “still susceptible”. Also, in [2], the “susceptibility to ANT(4')” value is on record as “still susceptible”. In experiment [3], the “effectiveness against enzyme-containing microorganisms” value is listed as “effective against a wide variety of microorganisms containing aminoglycoside-inactivating enzymes”.
On to `NCC1CC(O)C(O)C(OC2C(N)CC(N)C(OC3OC(CO)C(O)C(N)C3O)C2O)O1` (stereo not drawn) [4'-deoxykanamycin], for which the “resistance to kanamycin phosphotransferase Type-II” value in experiment [4] is listed as “resistance to kanamycin phosphotransferase Type-II”.

(Values after US4181797A, “1-N-(ω-amino-α-hydroxyalkanoyl) derivatives of 4'-deoxy-6'-N-methylkanamycin A” (Bristol-Myers Company, priority 1978, dated 1980).)
